Data: US20050043271A1, “Heparin-containing ophthalmic agent” (priority 2001, published 2005)

Columns and labels:
[1] = tear film tearing time (fluorescein, slit lamp); assay type: in vivo; details: concentration of 0.1% by weight to 0.3% by weight
Text: A further diagnostic parameter in regard to diagnosis of the “dry eye” syndrome is the tear film tearing time which makes it possible to provide information about the quality of the tear fluid. In that case for example the tear film is dyed with fluorescein and the patient is then asked to keep the eyes open as long as possible without a blink reflex. A slit lamp is then used to establish when the tear film tears open for the first time. If the period of time is less than 10 seconds, there is the suspicion of the “dry eye” syndrome.

mast cells = details: without direct antihistamine effect; inhalative and intravenous application; cited from earlier work
[2] = tested on: allergically caused conjunctival inflammation; details: high-dosage, topical application to the eye, animals; cited from earlier work
dry eyes = assay: subjective feeling of patients in treatment of dry eyes; assay type: in vivo; details: 0.1% by weight in the composition
Text: Aqueous sodium hyaluronate solutions are fluids with non-Newtonian flow properties. By virtue of that physical property, aqueous sodium hyaluronate solutions are excellently well suited as slip and lubricating agents with a good cling effect and a prolonged residence time on the conjunctival and corneal epithelia, without adversely affecting visual efficiency.

[3] = tested on: cornea epithelium cells of rabbits; assay: epithelium cell migration; assay type: cell-based; details: 0.1% by weight solution

hyaluronic acid
prolonging the tear film tearing time [1]: highly effective

heparin
degranulation, caused by antigens, of mast cells (mast cells): inhibits degranulation | treatment of allergically caused conjunctival inflammation [2]: effective

sodium hyaluronate
subjective feeling of the patients (dry eyes): considerably improves | epithelium cell migration [3]: increased epithelium cell migration
